In patent publication US10376520B2, “Methods for the treatment of cardiovascular disorders” (Galapagos NV, priority 2015, dated 2019):

Tested on: RA patients
Experiment: Lipoprotein A (Lp(a)) level (Selectra autoanalyzer), Study 4
Assay type: in vivo, human
Conditions: for LpA level, 4 weeks CFB: 4 weeks change from baseline
Procedure: Randomized double-blind, placebo-controlled add on study in subjects with active RA who have an inadequate response to MTX monotherapy, in combination with methotrexate, administered for 4 weeks in the treatment of subjects with active rheumatoid arthritis who have an inadequate response to methotrexate alone.
Compound 1 (dosed as a [Compound 1:HCl:3H2O]) capsules administered orally in 30 mg, 75 mg, 150 mg, or 300 mg doses per day for 4 weeks.
Lipoprotein A (Lp(a)) were measured on the Selectra autoanalyzer (Sopachem BV, 44-RI Straat 33, 4051 AP Ochten, The Netherlands). All assays were commercially available from DiaSys Diagnostic Systems GmbH, Alte Strasse 9, 65558 Holzheim, Germany.

Q: How did the “LpA level, 4 weeks CFB” value (30 mg q.d.) turn out when `O=C(Nc1nc2cccc(-c3ccc(CN4CCS(=O)(=O)CC4)cc3)n2n1)C1CC1` [Compound 1, cyclopropanecarboxylic acid {5-[4-(1,1-dioxo-thiomorpholin-4-ylmethyl)-phenyl]-[1,2,4]triazolo[1,5-a]pyridin-2yl}-amide] was run?
A: 3.9%

Q: And the LpA level, Baseline (30 mg q.d.)?
A: 22.5 mg/dL

Q: And the LpA level, week 4 (30 mg q.d.)?
A: 25.9 mg/dL

Q: What about the “LpA level, 4 weeks CFB” value (75 mg q.d.) of the same compound?
A: −3.7%

Q: And the LpA level, Baseline (75 mg q.d.)?
A: 28.5 mg/dL

Q: What about the LpA level, week 4 (75 mg q.d.) of the same compound?
A: 23.6 mg/dL

Q: And the “LpA level, 4 weeks CFB” value (150 mg q.d.)?
A: 7.0%

Q: And the LpA level, Baseline (150 mg q.d.)?
A: 29.5 mg/dL

Q: And the LpA level, week 4 (150 mg q.d.)?
A: 35 mg/dL

Q: And the “LpA level, 4 weeks CFB” value (300 mg q.d.)?
A: 4.4%

Q: And the LpA level, Baseline (300 mg q.d.)?
A: 13.4 mg/dL

Q: What about the LpA level, week 4 (300 mg q.d.) of the same compound?
A: 10.1 mg/dL
